Entries after “also recorded” stand apart in the source; their conditions may differ. Non-standard residues stand in square brackets, D forms with d. Residues, ends and D or L forms follow the SMILES beside them. Dap = NC[C@H](N)C(=O)O
Legend:
mMC4R = mMC4R (Mus musculus, UniProt P56450); assay: cAMP AlphaScreen agonist assay, HEK293 cells stably expressing mouse MC4R; details: for selectivity for the mMC4R over the mMC3R: agonist potency; for agonist activity/efficacy at mMC4R (in words): concentrations up to 100 μM; for mMC4R percent maximal stimulatory response at 100 μM: no EC50 determinable, relative to NDP-MSH; for EC50: read-out: mMC4R EC50, agonist, cAMP
mMC3R = mMC3R (Mus musculus, UniProt P33033); assay: cAMP AlphaScreen agonist assay, HEK293 cells stably expressing mouse MC3R; details: for mMC3R percent maximal stimulatory response at 100 μM: no EC50 determinable, relative to NDP-MSH; for agonist activity/efficacy at mMC3R (in words): concentrations up to 100 μM; for EC50: read-out: mMC3R EC50, agonist, cAMP
mMC1R = mMC1R (Mus musculus, UniProt Q01727); assay: cAMP AlphaScreen agonist assay, HEK293 cells stably expressing mouse MC1R; details: for EC50: read-out: mMC1R EC50, agonist, cAMP; for agonist activity/efficacy at mMC1R (in words): concentrations up to 100 μM
mMC5R = mMC5R (Mus musculus, UniProt P41149); assay: cAMP AlphaScreen agonist assay, HEK293 cells stably expressing mouse MC5R; details: for agonist activity/efficacy at mMC5R (in words): concentrations up to 100 μM; for EC50: read-out: mMC5R EC50, agonist, cAMP
mMC5R, sequence (P41149 whole entry): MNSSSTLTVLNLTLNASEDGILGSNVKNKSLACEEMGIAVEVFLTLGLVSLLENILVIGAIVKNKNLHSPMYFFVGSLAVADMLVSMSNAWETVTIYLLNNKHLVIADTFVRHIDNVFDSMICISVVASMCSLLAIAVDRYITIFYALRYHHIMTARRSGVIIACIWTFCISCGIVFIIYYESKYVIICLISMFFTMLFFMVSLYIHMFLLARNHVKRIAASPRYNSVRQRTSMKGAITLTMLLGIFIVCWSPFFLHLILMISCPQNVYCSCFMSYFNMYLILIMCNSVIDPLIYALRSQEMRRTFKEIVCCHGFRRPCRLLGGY

mMC4R, sequence (P56450 whole entry): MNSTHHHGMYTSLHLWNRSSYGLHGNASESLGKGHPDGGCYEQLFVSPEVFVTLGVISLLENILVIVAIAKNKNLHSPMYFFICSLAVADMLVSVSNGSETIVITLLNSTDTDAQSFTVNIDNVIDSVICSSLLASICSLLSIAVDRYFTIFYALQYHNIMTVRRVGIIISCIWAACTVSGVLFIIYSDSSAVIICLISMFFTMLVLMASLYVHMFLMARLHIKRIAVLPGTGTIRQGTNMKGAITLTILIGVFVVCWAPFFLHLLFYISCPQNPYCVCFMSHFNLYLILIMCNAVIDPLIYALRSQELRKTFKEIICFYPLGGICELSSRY
mMC1R, sequence (Q01727 whole entry): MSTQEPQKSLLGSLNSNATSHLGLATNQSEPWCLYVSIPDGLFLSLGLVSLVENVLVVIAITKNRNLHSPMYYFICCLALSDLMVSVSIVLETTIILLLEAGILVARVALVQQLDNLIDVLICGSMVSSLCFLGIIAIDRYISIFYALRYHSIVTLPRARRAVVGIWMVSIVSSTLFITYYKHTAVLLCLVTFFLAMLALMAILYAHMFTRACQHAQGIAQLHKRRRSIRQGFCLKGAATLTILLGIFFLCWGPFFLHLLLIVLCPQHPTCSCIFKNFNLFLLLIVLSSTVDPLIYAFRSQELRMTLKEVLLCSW
mMC3R, sequence (P33033 whole entry): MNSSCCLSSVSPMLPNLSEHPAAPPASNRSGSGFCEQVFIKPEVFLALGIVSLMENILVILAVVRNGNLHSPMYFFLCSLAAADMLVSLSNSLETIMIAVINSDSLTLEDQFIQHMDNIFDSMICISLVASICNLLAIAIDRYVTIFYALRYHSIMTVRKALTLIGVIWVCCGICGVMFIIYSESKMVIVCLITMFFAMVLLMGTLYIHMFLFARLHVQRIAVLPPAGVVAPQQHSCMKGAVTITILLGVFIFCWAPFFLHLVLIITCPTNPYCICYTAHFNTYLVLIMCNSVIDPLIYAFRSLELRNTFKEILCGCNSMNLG

Row | Structure (SMILES) | agonist activity/efficacy at mMC3R (in words) (mMC3R) | decreased agonist potency at mMC1R relative to MDE5-149-2c (mMC1R) [fold] | EC50 (mMC3R) [nM] | EC50 (mMC1R) [nM] | agonist activity/efficacy at mMC4R (in words) (mMC4R) | EC50 (mMC5R) [nM] | EC50 (mMC4R) [nM] | further results
1 | C[C@@H]1NC(=O)[C@H](CC(N)=O)NC(=O)[C@H](Cc2c[nH]c3ccccc23)NC(=O)[C@H](CCCNC(=N)N)NC(=O)[C@@H](Cc2ccccc2)NC(=O)[C@@H]2CCCN2C(=O)[C@H]2CCCN2C1=O [MDE6-3-1c, c[Pro-DPhe-Arg-Trp-Asn-Ala-DPro]] (cyclo(P[dF]RWNA[dP])) | partially stimulated |  |  |  |  |  |  | selectivity for the mMC4R over the mMC3R (mMC4R): > 100 fold; mMC3R percent maximal stimulatory response at 100 μM (mMC3R): 55% @
2 | N=C(N)NCCC[C@@H]1NC(=O)[C@@H](Cc2ccccc2)NC(=O)[C@H](Cc2c[nH]cn2)NC(=O)[C@@H]2CCCN2C(=O)[C@H]2CCCN2C(=O)[C@H](CC(N)=O)NC(=O)[C@H](Cc2c[nH]c3ccccc23)NC1=O [MDE6-10-2c, c[Pro-His-DPhe-Arg-Trp-Asn-DPro]] (cyclo(PH[dF]RWN[dP])) |  | 143 | 510 |  |  |  |  | decreased agonist potency at mMC5R relative to MDE5-149-2c (mMC5R): 37 fold; decreased agonist potency at mMC4R relative to MDE5-149-2c (mMC4R): 121 fold
3 | N=C(N)NCCC[C@@H]1NC(=O)[C@@H](Cc2ccccc2)NC(=O)[C@@H]2CCCN2C(=O)[C@H]2CCCN2C(=O)[C@H](Cc2c[nH]c3ccccc23)NC1=O [MDE5-147-1c, c[Pro-DPhe-Arg-Trp-DPro]] (cyclo(P[dF]RW[dP])) |  |  |  | 1800 | stimulated a fraction of the maximal NDP-MSH response |  |  | mMC5R percent maximal stimulatory response at 100 μM (mMC5R; 100 μM, no EC50 determinable, relative to NDP-MSH): 75% @
4 | N=C(N)NCCC[C@@H]1NC(=O)[C@@H](Cc2ccccc2)NC(=O)[C@@H]2CCCN2C(=O)[C@H]2CCCN2C(=O)[C@H](CN)NC(=O)[C@H](Cc2c[nH]c3ccccc23)NC1=O [MDE6-12-1c, c[Pro-DPhe-Arg-Trp-Dap-DPro]] (cyclo(P[dF]RW[Dap][dP])) | no observable activity; also recorded: did not possess agonist activity; also recorded: no agonist activity |  |  | 110 | stimulated a fraction of the maximal NDP-MSH response; also recorded: partially stimulated |  |  | mMC1R partial agonist, percent maximal NDP stimulation (mMC1R; PA, relative to maximal NDP-MSH response): PA, 75%; selectivity for the mMC1R over the other receptors (mMC1R; over mMC3R, mMC4R, mMC5R): > 500 fold; agonist activity/efficacy at mMC5R (in words) (mMC5R): no observable activity; also recorded: unable to stimulate; also recorded: no agonist activity; mMC4R percent maximal stimulatory response at 100 μM (mMC4R): 35%
5 | N=C(N)NCCC[C@@H]1NC(=O)[C@@H](Cc2ccccc2)NC(=O)[C@H](Cc2c[nH]cn2)NC(=O)[C@@H]2CCCN2C(=O)[C@H]2CCCN2C(=O)[C@H](CN)NC(=O)[C@H](Cc2c[nH]c3ccccc23)NC1=O [MDE6-12-2c, c[Pro-His-DPhe-Arg-Trp-Dap-DPro]] (cyclo(PH[dF]RW[Dap][dP])) | partially stimulated |  |  |  |  |  |  | decreased agonist potency at mMC1R relative to MDE6-5-2c (mMC1R; relative to MDE6-5-2c): 418 fold; decreased agonist potency at mMC5R relative to MDE6-5-2c (mMC5R; relative to MDE6-5-2c): 1,100 fold; decreased agonist potency at mMC4R relative to MDE6-5-2c (mMC4R; relative to MDE6-5-2c): 593 fold
6 | N=C(N)NCCC[C@@H]1NC(=O)[C@@H](Cc2ccccc2)NC(=O)[C@H](Cc2c[nH]cn2)NC(=O)[C@@H]2CCCN2C(=O)[C@H]2CCCN2C(=O)[C@H](Cc2c[nH]c3ccccc23)NC1=O [MDE5-147-2c, c[Pro-His-DPhe-Arg-Trp-DPro]] (cyclo(PH[dF]RW[dP])) | partially stimulated |  |  | 900 ± 200 | stimulated a fraction of the maximal NDP-MSH response | 6000 |  | mMC4R percent maximal stimulatory response at 100 μM (mMC4R): 65% @; mMC4R percent maximal stimulatory response at 100 μM (mMC4R; listed as MDES-147-2c): 65%; mMC3R percent maximal stimulatory response at 100 μM (mMC3R): 60% @; mMC3R percent maximal stimulatory response at 100 μM (mMC3R; listed as MDES-147-2c): 60%
7 | C[C@@H]1NC(=O)[C@H](CC(N)=O)NC(=O)[C@H](Cc2c[nH]c3ccccc23)NC(=O)[C@H](CCCNC(=N)N)NC(=O)[C@@H](Cc2ccccc2)NC(=O)[C@H](Cc2c[nH]cn2)NC(=O)[C@@H]2CCCN2C(=O)[C@H]2CCCN2C1=O [MDE6-3-2c, c[Pro-His-DPhe-Arg-Trp-Asn-Ala-DPro]] (cyclo(PH[dF]RWNA[dP])) |  | 34 | 300 |  |  |  |  | decreased agonist potency at mMC5R relative to MDE5-149-2c (mMC5R): 5 fold; decreased agonist potency at mMC4R relative to MDE5-149-2c (mMC4R): 21 fold; decreased agonist potency at mMC3R relative to MDE5-149-2c (mMC3R; relative to MDE5-149-2c): 9 fold
8 | N=C(N)NCCC[C@@H]1NC(=O)[C@@H](Cc2ccccc2)NC(=O)[C@@H]2CCCN2C(=O)[C@H]2CCCN2C(=O)[C@H](CC(N)=O)NC(=O)[C@H](Cc2c[nH]c3ccccc23)NC1=O [MDE6-10-1c, c[Pro-DPhe-Arg-Trp-Asn-DPro]] (cyclo(P[dF]RWN[dP])) | no agonist activity; also recorded: did not possess agonist activity |  |  | 40 |  |  | 1100 | selectivity for the mMC1R over the mMC3R (mMC1R; agonist potency): > 2500 fold; selectivity for the mMC1R over the mMC5R (mMC1R; agonist potency): > 1000 fold; increased agonist potency at mMC1R over MDE5-149-1c (mMC1R; increase over MDE5-149-1c): 10 fold; agonist activity/efficacy at mMC5R (in words) (mMC5R): partially stimulated; decreased potency at mMC4R relative to MDE5-149-1c (mMC4R; decrease relative to MDE5-149-1c): 8 fold
9 | C[C@@H]1NC(=O)[C@H](CN)NC(=O)[C@H](Cc2c[nH]c3ccccc23)NC(=O)[C@H](CCCNC(=N)N)NC(=O)[C@@H](Cc2ccccc2)NC(=O)[C@H](Cc2c[nH]cn2)NC(=O)[C@@H]2CCCN2C(=O)[C@H]2CCCN2C(=O)[C@H](Cc2ccccc2)NC1=O [MDE5-151-2c, c[Pro-His-DPhe-Arg-Trp-Dap-Ala-Phe-DPro]] (cyclo(PH[dF]RW[Dap]AF[dP])) | full agonist | 70 | 260 | 24 | partial agonist | 18 ± 2 | 23 | agonist activity/efficacy at mMC1R (in words) (mMC1R): full agonist
10 | C[C@@H]1NC(=O)[C@H](CN)NC(=O)[C@H](Cc2c[nH]c3ccccc23)NC(=O)[C@H](CCCNC(=N)N)NC(=O)[C@@H](Cc2ccccc2)NC(=O)[C@@H]2CCCN2C(=O)[C@H]2CCCN2C1=O [MDE6-5-1c, c[Pro-DPhe-Arg-Trp-Dap-Ala-DPro]] (cyclo(P[dF]RW[Dap]A[dP])) | partially stimulated |  |  | 600 |  | 48 | 150 ± 10 | agonist activity/efficacy at mMC1R (in words) (mMC1R): full agonist
11 | C[C@@H]1NC(=O)[C@H](CC(N)=O)NC(=O)[C@H](Cc2c[nH]c3ccccc23)NC(=O)[C@H](CCCNC(=N)N)NC(=O)[C@@H](Cc2ccccc2)NC(=O)[C@@H]2CCCN2C(=O)[C@H]2CCCN2C(=O)[C@H](Cc2ccccc2)NC1=O [MDE5-149-1c, c[Pro-DPhe-Arg-Trp-Asn-Ala-Phe-DPro]] (cyclo(P[dF]RWNAF[dP])) | partially stimulated | 1140 |  | 400 ± 200 |  | 40 ± 10 | 130 ± 70 | decreased agonist potency at mMC5R relative to MDE5-149-2c (mMC5R): 90 fold; decreased agonist potency at mMC4R relative to MDE5-149-2c (mMC4R): 90 fold
12 | C[C@@H]1NC(=O)[C@H](CN)NC(=O)[C@H](Cc2c[nH]c3ccccc23)NC(=O)[C@H](CCCNC(=N)N)NC(=O)[C@@H](Cc2ccccc2)NC(=O)[C@@H]2CCCN2C(=O)[C@H]2CCCN2C(=O)[C@H](Cc2ccccc2)NC1=O [MDE5-151-1c, c[Pro-DPhe-Arg-Trp-Dap-Ala-Phe-DPro]] (cyclo(P[dF]RW[Dap]AF[dP])) | partial agonist |  | 3000 | 190 | full agonist | 46 ± 6 | 100 | agonist activity/efficacy at mMC1R (in words) (mMC1R): partial agonist
13 | C[C@@H]1NC(=O)[C@H](CC(N)=O)NC(=O)[C@H](Cc2c[nH]c3ccccc23)NC(=O)[C@H](CCCNC(=N)N)NC(=O)[C@@H](Cc2ccccc2)NC(=O)[C@H](Cc2cnc[nH]2)NC(=O)[C@@H]2CCCN2C(=O)[C@H]2CCCN2C(=O)[C@H](Cc2ccccc2)NC1=O [MDE5-149-2c, c[Pro-His-DPhe-Arg-Trp-Asn-Ala-Phe-DPro]] (cyclo(H[dF]RWNAF[dP]P)) |  |  | 32 | 0.35 |  | 0.45 | 1.4 | selectivity for the mMC4R over the mMC3R (mMC4R): 23 fold
